Measurements reported in the supplement of paper PMC10307832.

Tests used:
Assay in all cases: relative viability (nuclei count vs DMSO), 5 days (fraction); higher = more cells survive
A-427 = test system: A-427
Outline: (§1)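 Lung cancer cell lines in 1536-well plates were dosed by pin tool the day after seeding, either with one drug alone or with a fixed anchor-drug dose plus five library-drug doses (not always all listed) in √10 steps. After 5 days, cells were fixed and their nuclei stained in one step (final 0.05% Triton X-100, 1% formaldehyde, 1 ug/ml Hoechst), then counted on 4× images. Relative viability is the nuclei count in treated wells divided by that in vehicle wells. Values are medians of duplicate plates.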

ABC-1 = test system: ABC-1
Outline: as §1

COR-L23 = test system: COR-L23
Outline: as §1

EMC-BAC-2 = test system: EMC-BAC-2
Outline: as §1

HARA = test system: HARA
Outline: as §1

HOP-62 = test system: HOP-62
Outline: as §1

LK-2 = test system: LK-2
Outline: as §1

LXF-289 = test system: LXF-289
Outline: as §1

NCI-H1792 = test system: NCI-H1792
Outline: as §1

NCI-H1944 = test system: NCI-H1944
Outline: as §1

NCI-H1993 = test system: NCI-H1993
Outline: as §1

NCI-H2009 = test system: NCI-H2009
Outline: as §1

NCI-H2170 = test system: NCI-H2170
Outline: as §1

NCI-H2228 = test system: NCI-H2228
Outline: as §1

NCI-H3122 = test system: NCI-H3122
Outline: as §1

NCI-H596 = test system: NCI-H596
Outline: as §1

NCI-H727 = test system: NCI-H727
Outline: as §1

PC-3 [JPC-3] = test system: PC-3 [JPC-3]
Outline: as §1

SK-LU-1 = test system: SK-LU-1
Outline: as §1

SK-MES-1 = test system: SK-MES-1
Outline: as §1

SW 1573 = test system: SW 1573
Outline: as §1

CC1(C)CCC(c2ccc(Cl)cc2)=C(CN2CCN(c3ccc(C(=O)NS(=O)(=O)c4ccc(N[C@H](CCN5CCOCC5)CSc5ccccc5)c(S(=O)(=O)C(F)(F)F)c4)cc3)CC2)C1 [Navitoclax] + C[C@@H](Oc1cc(-c2cnn(C3CCNCC3)c2)cnc1N)c1c(Cl)ccc(F)c1Cl [Crizotinib] (partner 1 µM)
relative viability (A-427; first compound 0.005 µM): 0.828 | relative viability (A-427; first compound 0.01581 µM): 0.948 | relative viability (A-427; first compound 0.05 µM): 0.652 | relative viability (A-427; first compound 0.1581 µM): 1.01 | relative viability (A-427; first compound 0.5 µM): 0.915 | relative viability (ABC-1; first compound 0.005 µM): 1.19 | relative viability (ABC-1; first compound 0.01581 µM): 1.4 | relative viability (ABC-1; first compound 0.05 µM): 1.19 | relative viability (ABC-1; first compound 0.1581 µM): 1.14 | relative viability (ABC-1; first compound 0.5 µM): 0.983 | relative viability (COR-L23; first compound 0.005 µM): 0.618 | relative viability (COR-L23; first compound 0.01581 µM): 0.712 | relative viability (COR-L23; first compound 0.05 µM): 0.686 | relative viability (COR-L23; first compound 0.1581 µM): 0.664 | relative viability (COR-L23; first compound 0.5 µM): 0.643 | relative viability (EMC-BAC-2; first compound 0.005 µM): 0.716 | relative viability (EMC-BAC-2; first compound 0.01581 µM): 0.689 | relative viability (EMC-BAC-2; first compound 0.05 µM): 0.743 | relative viability (EMC-BAC-2; first compound 0.1581 µM): 0.703 | relative viability (EMC-BAC-2; first compound 0.5 µM): 0.701 | relative viability (HARA; first compound 0.005 µM): 1.09 | relative viability (HARA; first compound 0.01581 µM): 1.16 | relative viability (HARA; first compound 0.05 µM): 0.944 | relative viability (HARA; first compound 0.1581 µM): 0.907 | relative viability (HARA; first compound 0.5 µM): 1.01 | relative viability (HOP-62; first compound 0.005 µM): 0.965 | relative viability (HOP-62; first compound 0.01581 µM): 1.09 | relative viability (HOP-62; first compound 0.05 µM): 0.926 | relative viability (HOP-62; first compound 0.1581 µM): 0.917 | relative viability (HOP-62; first compound 0.5 µM): 1.03 | relative viability (LK-2; first compound 0.005 µM): 0.226 | relative viability (LK-2; first compound 0.01581 µM): 0.21 | relative viability (LK-2; first compound 0.05 µM): 0.246 | relative viability (LK-2; first compound 0.1581 µM): 0.191 | relative viability (LK-2; first compound 0.5 µM): 0.263 | relative viability (LXF-289; first compound 0.005 µM): 0.736 | relative viability (LXF-289; first compound 0.01581 µM): 0.836 | relative viability (LXF-289; first compound 0.05 µM): 0.787 | relative viability (LXF-289; first compound 0.1581 µM): 0.797 | relative viability (LXF-289; first compound 0.5 µM): 0.794 | relative viability (NCI-H1792; first compound 0.005 µM): 0.996 | relative viability (NCI-H1792; first compound 0.01581 µM): 1.04 | relative viability (NCI-H1792; first compound 0.05 µM): 0.911 | relative viability (NCI-H1792; first compound 0.1581 µM): 1 | relative viability (NCI-H1792; first compound 0.5 µM): 0.946 | relative viability (NCI-H1944; first compound 0.005 µM): 1.05 | relative viability (NCI-H1944; first compound 0.01581 µM): 1.13 | relative viability (NCI-H1944; first compound 0.05 µM): 0.798 | relative viability (NCI-H1944; first compound 0.1581 µM): 1.14 | relative viability (NCI-H1944; first compound 0.5 µM): 1.03 | relative viability (NCI-H1993; first compound 0.005 µM): 0.89 | relative viability (NCI-H1993; first compound 0.01581 µM): 1 | relative viability (NCI-H1993; first compound 0.05 µM): 0.848 | relative viability (NCI-H1993; first compound 0.1581 µM): 0.853 | relative viability (NCI-H1993; first compound 0.5 µM): 0.866 | relative viability (NCI-H2009; first compound 0.005 µM): 0.972 | relative viability (NCI-H2009; first compound 0.01581 µM): 1.05 | relative viability (NCI-H2009; first compound 0.05 µM): 1.1 | relative viability (NCI-H2009; first compound 0.1581 µM): 1.13 | relative viability (NCI-H2009; first compound 0.5 µM): 1.05 | relative viability (NCI-H2170; first compound 0.005 µM): 1.06 | relative viability (NCI-H2170; first compound 0.01581 µM): 1.28 | relative viability (NCI-H2170; first compound 0.05 µM): 1.21 | relative viability (NCI-H2170; first compound 0.1581 µM): 1.06 | relative viability (NCI-H2170; first compound 0.5 µM): 1.05 | relative viability (NCI-H2228; first compound 0.005 µM): 0.633 | relative viability (NCI-H2228; first compound 0.01581 µM): 0.553 | relative viability (NCI-H2228; first compound 0.05 µM): 0.573 | relative viability (NCI-H2228; first compound 0.1581 µM): 0.454 | relative viability (NCI-H2228; first compound 0.5 µM): 0.52 | relative viability (NCI-H3122; first compound 0.005 µM): 0.254 | relative viability (NCI-H3122; first compound 0.01581 µM): 0.308 | relative viability (NCI-H3122; first compound 0.05 µM): 0.244 | relative viability (NCI-H3122; first compound 0.1581 µM): 0.306 | relative viability (NCI-H3122; first compound 0.5 µM): 0.292 | relative viability (NCI-H596; first compound 0.005 µM): 1.02 | relative viability (NCI-H596; first compound 0.01581 µM): 0.985 | relative viability (NCI-H596; first compound 0.05 µM): 0.802 | relative viability (NCI-H596; first compound 0.1581 µM): 1.02 | relative viability (NCI-H596; first compound 0.5 µM): 1.01 | relative viability (NCI-H727; first compound 0.005 µM): 0.692 | relative viability (NCI-H727; first compound 0.01581 µM): 1.11 | relative viability (NCI-H727; first compound 0.1581 µM): 0.797 | relative viability (NCI-H727; first compound 0.5 µM): 0.73 | relative viability (PC-3 [JPC-3]; first compound 0.005 µM): 1.01 | relative viability (PC-3 [JPC-3]; first compound 0.01581 µM): 0.986 | relative viability (PC-3 [JPC-3]; first compound 0.05 µM): 0.927 | relative viability (PC-3 [JPC-3]; first compound 0.1581 µM): 0.991 | relative viability (PC-3 [JPC-3]; first compound 0.5 µM): 0.963 | relative viability (SK-LU-1; first compound 0.005 µM): 0.846 | relative viability (SK-LU-1; first compound 0.01581 µM): 0.975 | relative viability (SK-LU-1; first compound 0.05 µM): 1.14 | relative viability (SK-LU-1; first compound 0.1581 µM): 0.894 | relative viability (SK-LU-1; first compound 0.5 µM): 0.834 | relative viability (SK-MES-1; first compound 0.005 µM): 0.953 | relative viability (SK-MES-1; first compound 0.01581 µM): 1.07 | relative viability (SK-MES-1; first compound 0.05 µM): 1.08 | relative viability (SK-MES-1; first compound 0.1581 µM): 0.953 | relative viability (SK-MES-1; first compound 0.5 µM): 0.978 | relative viability (SW 1573; first compound 0.005 µM): 0.716 | relative viability (SW 1573; first compound 0.01581 µM): 0.794 | relative viability (SW 1573; first compound 0.05 µM): 0.674 | relative viability (SW 1573; first compound 0.1581 µM): 0.687 | relative viability (SW 1573; first compound 0.5 µM): 0.981
